Reference: US5874529A, “Conformationally constrained backbone cyclized peptide analogs” (Peptor Ltd., priority 1994, dated 1999)
Read-outs that look alike come from different tables or passages of the source. Numbered stars: 1 amine (or outer) side, 2 acyl side, 3 side chain; on linkers, the order of the positions; unused ones are H or OH. Bridge positions count the residues as written; N and C are the ends. Square brackets hold non-standard residues; d marks the D form. Peptide text beside a SMILES is read from it. NGly(3-aminopropyl) = O=C(CN(CCCN[*:3])[*:1])[*:2]; N(2-Aminoethyl)Gly = O=C(CN(CCN[*:3])[*:1])[*:2]; N(CH2CH2CO)Gly = O=C(CN(CCC(=O)[*:3])[*:1])[*:2]

Experiments:
[1] = target: T1, BK2 receptors (Cavia porcellus, UniProt O70526); assay: Bradykinin antagonist assay, guinea-pig ileum contraction
T1 construct: This tissue contains predominantly BK2 receptors; from tissue; host or cells: guinea-pig ileum, longitudinal muscle layer with adhering mesenteric plexus
T1 sequence (O70526 1-372): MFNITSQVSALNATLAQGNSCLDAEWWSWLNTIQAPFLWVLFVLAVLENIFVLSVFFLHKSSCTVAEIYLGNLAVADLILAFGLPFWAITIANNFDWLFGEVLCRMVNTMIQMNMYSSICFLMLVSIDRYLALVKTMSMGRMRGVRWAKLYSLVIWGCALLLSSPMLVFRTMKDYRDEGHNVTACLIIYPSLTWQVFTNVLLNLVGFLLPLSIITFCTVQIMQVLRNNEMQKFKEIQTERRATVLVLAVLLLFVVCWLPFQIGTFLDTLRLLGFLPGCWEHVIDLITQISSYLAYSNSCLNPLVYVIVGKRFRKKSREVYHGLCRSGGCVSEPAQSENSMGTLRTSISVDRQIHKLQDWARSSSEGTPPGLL
Protocol: The ileum of the guinea-pig was selected as the preparation for the bioassay. This tissue contains predominantly BK2 receptors. The preparation consists of the longitudinal muscle layer with the adhering mesenteric plexus. The isolated preparation was kept in Krebs solution and contractions were measured with an isometric force transducer. […] Atropine (1 μM) was always present.

[2] = In vitro biostability in human serum; format: in vitro ADME; details: 37° C., HPLC determination of peptide degradation over time, compared with PTR 3001, octreotide, SRIF
Protocol: The in vitro biostability of a SST cyclic peptide analog, PTR 3002, was measured in human serum, and was compared to the same sequence in a non-cyclic peptide analog (PTR 3001), to octreotide (Sandostatin), and to native somatostatin (SRIF). […] The assay was based on HPLC determination of peptide degradation as a function of time at 37° C.

[3] = target: T2, Somatostatin Receptor (SSTR) Subtype SSTR 2B (Homo sapiens, UniProt P30874); assay: Inhibition of radioactive iodinated somatostatin (SRIF-14) binding, CHO cells expressing SSTR 2B; details: read-out: percent inhibition of radioactive iodinated somatostatin (SRIF-14) binding, SSTR 2B; for inhibition at 1 µM: Conc. 10^-6 M; for inhibition at 0.1 µM: Conc. 10^-7 M; for inhibition at 0.01 µM: Conc. 10^-8 M
T2 construct: expressed in transfected cells; host or cells: CHO cells
Description: (§1) The values presented are percent inhibition of radioactive iodinated somatostatin (SRIF-14) binding.

[4] = target: T3, Somatostatin Receptor (SSTR) Subtype SSTR 5 (Homo sapiens, UniProt P35346); assay: Inhibition of radioactive iodinated somatostatin (SRIF-14) binding, CHO cells expressing SSTR 5; details: read-out: percent inhibition of radioactive iodinated somatostatin (SRIF-14) binding, SSTR 5; for inhibition at 1 µM: Conc. 10^-6 M; for inhibition at 0.1 µM: Conc. 10^-7 M; for inhibition at 0.01 µM: Conc. 10^-8 M
T3 construct: expressed in transfected cells; host or cells: CHO cells
Description: as §1

[5] = Lack of toxicity of cyclized peptide analogs in rats; format: in vivo
Description: These two doses are several orders of magnitude higher than those needed to elicit the desired endocrine effect. The peptides dissolved in saline produced no untoward side effects on the central nervous system, cardiovascular system, body temperature, nor on the periphery of the animals.

[6] = target: T4, bradykinin receptors (Rattus norvegicus, UniProt P25023); assay: Bradykinin antagonist assay, (3H)dopamine release from PC 12 cells; format: cell-based; details: At 10^-6 M; (3H)dopamine release from PC 12 cells stimulated by bradykinin
T4 construct: PC 12 cells that express bradykinin receptors; endogenous in cells; host or cells: PC12 cells
T4 sequence (P25023 1-396): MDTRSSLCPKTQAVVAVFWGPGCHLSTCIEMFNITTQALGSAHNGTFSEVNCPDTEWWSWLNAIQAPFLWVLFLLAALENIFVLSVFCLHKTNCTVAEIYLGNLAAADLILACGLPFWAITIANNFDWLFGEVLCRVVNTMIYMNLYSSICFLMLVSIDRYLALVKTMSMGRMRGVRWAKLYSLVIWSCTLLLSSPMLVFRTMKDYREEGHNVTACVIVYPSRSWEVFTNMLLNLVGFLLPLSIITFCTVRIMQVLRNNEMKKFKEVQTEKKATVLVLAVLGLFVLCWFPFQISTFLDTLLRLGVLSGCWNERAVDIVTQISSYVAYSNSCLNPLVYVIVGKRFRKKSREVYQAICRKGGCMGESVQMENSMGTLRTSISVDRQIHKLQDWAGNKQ
Protocol: Novel backbone cyclized peptide analogs of the present invention were assayed in vitro for bradykinin antagonist activity by protection of (^3 H) dopamine release from PC 12 cells that express bradykinin receptors. PC12 cells were grown in Dulbecco Modified Eagle's medium with high glucose, supplemented with 10% horse serum, 5% fetal calf serum, 130 units/ml penicillin and 0.1 mg/ml streptomycin. For experiments, cells were removed from the medium using 1 mmole EDTA and replated on collagen coated-12-well plates and assayed 24 hr later. Release of (^3 H)dopamine was determined as follows: cells were incubated for 1.5 hr at 37° C. with 0.5 ml of growth medium and […] (^3 H)DA (41 Ci/mmole) and […] pargyline followed by extensive washing with medium (3×1 ml) and release buffer consisting of (mM): 130 NaCl; 5 KCl; 25 NaHCO3; 1 NaH2 PO4; 10 glucose and 1.8 CaCl2. In a typical experiment, cells were incubated with 0.5 ml buffer for 5 consecutive incubation periods of 3 min each at 37° C. Spontaneous (^3 H)DA release was measured by collecting the medium released by the cells successively for the first 3 min period. Antagonists were added to the cells 3 min prior to stimulation (at the second period), and stimulation of (^3 H)DA release by 100 nmole of bradykinin are monitored during the 3 period by 60 mmole KCl. The remaining of the (^3 H)DA was extracted from the cells by over night incubation with 0.5 ml 0.1N HCl. (^3 H)DA release during each 3 min period was expressed as a % of the total (^3 H)DA content of the cells. Net evoked release was calculated from (^3 H)DA release during stimulation period after subtracting basal (^3 H)DA release in the preceding baseline period if not indicated otherwise.

[7] = At 10^-6 M, guinea-pig ileum, BK 2×10^-8 M, atropine 1 μM present

T2 sequence (P30874 1-356 isoform P30874-2): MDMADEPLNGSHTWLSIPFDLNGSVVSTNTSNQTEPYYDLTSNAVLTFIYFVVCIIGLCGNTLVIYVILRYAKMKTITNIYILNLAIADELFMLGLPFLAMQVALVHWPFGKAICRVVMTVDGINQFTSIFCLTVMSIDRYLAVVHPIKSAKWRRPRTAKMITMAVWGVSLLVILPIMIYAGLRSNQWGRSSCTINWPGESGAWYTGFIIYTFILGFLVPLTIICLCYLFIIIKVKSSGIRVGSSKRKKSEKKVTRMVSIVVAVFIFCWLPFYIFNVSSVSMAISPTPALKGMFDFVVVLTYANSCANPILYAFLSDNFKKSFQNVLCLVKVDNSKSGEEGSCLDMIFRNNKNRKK
T3 sequence (P35346 whole entry): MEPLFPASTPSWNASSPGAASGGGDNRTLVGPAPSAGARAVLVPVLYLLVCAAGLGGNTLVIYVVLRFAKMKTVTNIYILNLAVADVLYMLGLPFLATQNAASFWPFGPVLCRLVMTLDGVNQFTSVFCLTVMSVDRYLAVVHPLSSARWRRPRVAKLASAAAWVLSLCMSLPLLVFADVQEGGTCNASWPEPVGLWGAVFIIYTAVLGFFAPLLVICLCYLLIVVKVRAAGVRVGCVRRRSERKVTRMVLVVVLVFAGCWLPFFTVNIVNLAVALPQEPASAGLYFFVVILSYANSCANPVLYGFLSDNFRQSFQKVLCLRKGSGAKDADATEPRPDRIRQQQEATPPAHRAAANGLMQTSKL

**Q.** With NC(N)=NCCC[C@H](NC(=O)[C@H](Cc1ccccc1)NC(=O)[C@@H]1CCCN1C(=O)[C@H](CO)NC(=O)[C@H](Cc1ccccc1)NC(=O)CNC(=O)[C@@H]1CCCN1C(=O)[C@@H]1CCCN1C(=O)[C@@H](N)CCCN=C(N)N)C(=O)O [BK, Arg^1 -Pro^2 -Pro^3 -Gly^4 -Phe^5 -Ser^6 -Pro^7 -Phe^8 -Arg^9, reference compound] (H-RPPGFSPFR-OH) as the molecule, how does the EC50 [1] read?
**A.** The EC50 was 20 nM.

**Q.** Which “in vitro biostability in human serum” value [2] does the source give for C[C@@H](O)[C@H](NC(=O)CN1CCNC(=O)CCN(C(=O)[C@H](N)Cc2ccccc2)CC(=O)N[C@@H](Cc2ccccc2)C(=O)N[C@H](Cc2c[nH]c3ccccc23)C(=O)N[C@@H](CCCCN)C(=O)N[C@@H]([C@@H](C)O)C1=O)C(N)=O [PTR 3002] (H-[dF][N(CH2CH2CO)Gly]F[dW]KT[N(2-Aminoethyl)Gly]T-NH2; lactam 2-7) here?
**A.** The value was “as stable as octreotide, is more stable than the corresponding non-cyclic structure, and is much more stable than SRIF”.

**Q.** Which results are given for C[C@@H](O)[C@H](NC(=O)CNC(=O)[C@@H](NC(=O)[C@H](CCCCN)NC(=O)[C@@H](Cc1c[nH]c2ccccc12)NC(=O)[C@H](Cc1ccccc1)NC(=O)CNC(=O)[C@H](N)Cc1ccccc1)[C@@H](C)O)C(N)=O [PTR 3003] (H-[dF]GF[dW]KTGT-NH2)?
**A.** inhibition at 1 µM [3]: 16%; inhibition at 0.1 µM [3]: 3%; inhibition at 0.01 µM [3]: 0%; inhibition at 1 µM [4]: 55%; inhibition at 0.1 µM [4]: 20%; inhibition at 0.01 µM [4]: 0%

**Q.** With C[C@@H](O)[C@H](NC(=O)CN1CCCNC(=O)CN(C(=O)[C@H](N)Cc2ccccc2)CC(=O)N[C@@H](Cc2ccccc2)C(=O)N[C@H](Cc2c[nH]c3ccccc23)C(=O)N[C@@H](CCCCN)C(=O)N[C@@H]([C@@H](C)O)C1=O)C(N)=O [PTR 3004] as the molecule, how does the inhibition at 1 µM [3] read?
**A.** The inhibition at 1 µM was 0%.

**Q.** What about the inhibition at 0.1 µM [3] of the same molecule?
**A.** The inhibition at 0.1 µM was 0%.

**Q.** And the inhibition at 0.01 µM [3]?
**A.** Its inhibition at 0.01 µM is 0%.

**Q.** What about the inhibition at 1 µM [4] of the same molecule?
**A.** The inhibition at 1 µM was 14%.

**Q.** And the inhibition at 0.1 µM [4]?
**A.** The inhibition at 0.1 µM was 0%.

**Q.** And the inhibition at 0.01 µM [4]?
**A.** Its inhibition at 0.01 µM is 0%.

**Q.** Which results are given for C[C@@H](O)[C@H](NC(=O)CN1CCCNC(=O)CCN(C(=O)[C@H](N)Cc2ccccc2)CC(=O)N[C@@H](Cc2ccccc2)C(=O)N[C@H](Cc2c[nH]c3ccccc23)C(=O)N[C@@H](CCCCN)C(=O)N[C@@H]([C@@H](C)O)C1=O)C(N)=O [PTR 3007] (H-[dF][N(CH2CH2CO)Gly]F[dW]KT[NGly(3-aminopropyl)]T-NH2; lactam 2-7)?
**A.** respiratory disturbances, stereotyped behavior, muscle tone ([5]; rats observed for 4 hours post administration): produced no respiratory disturbances, did not result in the appearance of stereotyped behavior, or produce any changes in muscle tone; tolerability ([5]; rats, 1.5 mg/kg, single intraperitoneal application): well tolerated; inhibition at 1 µM [3]: 0%; inhibition at 0.1 µM [3]: 0%; inhibition at 0.01 µM [3]: 0%; inhibition at 1 µM [4]: 19%; inhibition at 0.1 µM [4]: 9%; inhibition at 0.01 µM [4]: 0%

**Q.** Which inhibition at 1 µM [3] does the source give for C[C@@H](O)[C@H](NC(=O)CN1CCC(=O)NCCCN(C(=O)[C@H](N)Cc2ccccc2)CC(=O)N[C@@H](Cc2ccccc2)C(=O)N[C@H](Cc2c[nH]c3ccccc23)C(=O)N[C@@H](CCCCN)C(=O)N[C@@H]([C@@H](C)O)C1=O)C(N)=O [PTR 3010] (H-[dF][NGly(3-aminopropyl)]F[dW]KT[N(CH2CH2CO)Gly]T-NH2; lactam 2-7) here?
**A.** The inhibition at 1 µM was 0%.

**Q.** And the inhibition at 0.1 µM [3]?
**A.** The inhibition at 0.1 µM was 0%.

**Q.** What about the inhibition at 0.01 µM [3] of the same molecule?
**A.** The inhibition at 0.01 µM was 0%.

**Q.** What about the inhibition at 1 µM [4] of the same molecule?
**A.** Its inhibition at 1 µM is 63%.

**Q.** And the inhibition at 0.1 µM [4]?
**A.** Its inhibition at 0.1 µM is 26%.

**Q.** And the inhibition at 0.01 µM [4]?
**A.** Its inhibition at 0.01 µM is 9%.

**Q.** With “Ada-(D)Arg-Arg-cyclo(N^α (1-(6-aminohexylene)Gly-Hyp-Phe-D-Asp)-D-Phe-Phe-Arg-OH [Example 1]” as the molecule, how does the “inhibition of BK activity” value [6] read?
**A.** Its value is 30%.

**Q.** And the “inhibition of BK activity” value [1]?
**A.** Its value is 24%.

**Q.** Which “inhibition of BK activity” value [6] does the source give for “Ada-D-Arg-Arg-N^α (6-acetamidohexylene)Gly-Hyp-Phe-D-Asp(NH-Me)-D-Phe-Phe-Arg-OH [Example 2]” here?
**A.** The value was 0%.

**Q.** And the “inhibition of BK activity” value [1, 7]?
**A.** Its value is 0%.

**Q.** For “H-D-Arg-Arg-cyclo(N^α (1-(4-propanoyl))Gly-Hyp-Phe-N^α (3-amido-propylene)Gly)-Ser-D-Phe-Phe-Arc-OH [Example 3]”, which “inhibition of BK activity” value [1, 7] is on record?
**A.** Its value is 10%.

**Q.** Which “inhibition of BK activity” value [6] does the source give for “H-D-Arg-Arg-cyclo(N^α (4-propanoyl)Gly-Hyp-Phe-N^α (3-amido-propyl)-S-Phe)-Ser-D-Phe-Phe-Arg-OH [Example 4]” here?
**A.** The value was 17%.

**Q.** And the “inhibition of BK activity” value [1, 7]?
**A.** The value was 17%.
